Test results: patent US20070197586A1, “8-Hydroxy-5-[(-Hydroxy-2-[[ (1R)-2-(4-Methoxyphenyl)-1-Methylethyl] Amino][Ethyl]-2(1H)-Quinolinone Monohydrochloride In Crystalline Form And The Process For Its Preparation” (Chiesi Farmaceutici S.p.A., priority 2004, published 2007)

Experiment: Crystalline degree by in-house DSC method (heat of fusion vs 100% crystalline reference standard)
Type: physicochemical
Settings: samples as such and after grinding or micronization; DSC scan rate 130° C./min; maintained after grinding and micronization
Method: The crystalline degree of the compound has been determined according to a differential scanning calorimetry (DSC) method developed in-house based on the measurement of the heat of fusion.
Said method uses a scan rate of 130° C./min to evaluate the percentage of crystalline compound in a sample by determining the ratio between the ΔH (heat of fusion) of the sample with respect to the ΔH of a 100% crystalline reference standard, determined in the same range of temperature and in the same experimental conditions. The 100% crystalline reference standard was prepared by suspending the compound in ethanol, then filtering to eliminate the residual amorphous compound dissolved in ethanol, and drying.
The method was applied to samples of the compound of the Example as such, and after grinding or micronization.

COc1ccc(C[C@@H](C)NC[C@H](O)c2ccc(O)c3[nH]c(=O)ccc23)cc1.Cl [compound of the Example, 8-hydroxy-5-[(1R)-1-hydroxy-2-[[(1R)-2-(4-methoxyphenyl)-1-methylethyl]amino]ethyl]-2(1H)-quinolinone monohydrochloride]
cristallinity degree: higher than 90%
